Results as given in patent US20230052667A1, “AGENT FOR MAINTAINING OR ENHANCING COLLAGEN PRODUCTION ABILITY” (Shiseido Company, Ltd., priority 2020, published 2023).

Tested on: human skin-derived fibroblasts
Experiment: Collagen quantification in fibroblasts after artificial sunlight irradiation through the wavelength conversion substance
Type: cell-based
Conditions: artificial sunlight 80 minutes passed through substance (10% phosphor film or 1% aqueous solution, no cell contact); collagen measured 3 days after irradiation; UV-only control 14 μg collagen/well
Procedure: Preparation method: A film containing 10% Zinc Oxide phosphor, a film containing 10% magnesium titanate phosphor were used, and C-phycocyanin was dissolved in ultrapure water at a concentration of 1% and used as a solution. • Cells: human skin-derived fibroblasts • Collagen assay kit: Cosmo Bio Co., COL-001 • DNA-quantitation kit: Cosmo Bio Co., AK06 • Artificial Sunlight Irradiation System: Celick Corporation: XC-500BF
Human skin-derived fibroblasts cultured in 75 cm^2 flasks were treated with trypsin, and after harvesting the cells, the cells were seeded at a density of 2×10^5 cells/dish using medium on five 6-well plates according to the plate arrangement below. […]
After 3 days from illumination, culture supernatants were removed from wells for collagen quantitation in each treatment group and washed with PBS. Collagen in human fibroblast layers was extracted and measured according to the protocol of the collagen quantitation kit (https://search.cosmobio.co.jp/cosmo_searchp/search_gate2/docs/CSR_/COL001.20190327.pdf). In addition, the amount of DNA in samples after collagen extraction was determined for correction of collagen quantitative results according to the protocol of the Quantitative Kit of DNA (https://search.cosmobio.co.jp/cosmo)_search_p/search_gate2/docs/PMC_/AK06.20140507.pdf).

## C-phycocyanin
  collagen produced by UV-irradiated fibroblasts: 25 μg collagen/well
